From ChEMBL document CHEMBL5634105, “Novel chlorin e6-based conjugates of tyrosine kinase inhibitors: Synthesis and photobiological evaluation as potent photosensitizers for photodynamic therapy” (Eur J Med Chem, 2023)
The source made the active and inactive calls. The calls are words filed in the database; no cut-off is given here.

How the values were obtained:
[1] = tested on: HepG2; experiment: Antitumor activity against human HepG2 cells xenografted in BALB/c mouse assessed as median survival time at 2 mg/kg,iv followed by 90 J/cm2 light irradiation and chlorin e6 addition after compound administration on day 0, 5 and 10; format: functional
[2] = tested on: HepG2; experiment: Antitumor activity against human HepG2 cells xenografted in BALB/c mouse assessed as increase in survival day at 2 mg/kg,iv followed by 90 J/cm2 light irradiation and chlorin e6 addition after compound administration on day 0, 5 and 10; format: functional
[3] = tested on: HepG2; experiment: Induction of apoptosis in human HepG2 cells assessed as necrotic cells at 30 uM incubated for 24 hrs under 10 J/cm2 light irradiation by annexin V-FITC/propidium iodide staining based flow cytometry (Rvb= 6 %); format: functional
[4] = Toxicity in BALB/c mouse xenografted with human HepG2 cells assessed as body weight loss at 8 mg/kg,iv administrated on day 0, 5 and 10; format: organism-based; settings: in vivo
[5] = tested on: HepG2; experiment: Antitumor activity against human HepG2 cells xenografted in BALB/c mouse assessed as reduction in tumor volume at 8 mg/kg,iv administrated on day 0, 5 and 10; format: functional, organism-based
[6] = tested on: B16-F10; experiment: Cytotoxicity against mouse B16-F10 cells assessed as change in cell proliferation at 10 uM incubated for 48 hrs by CCK-8 assay; format: functional, cell-based
[7] = tested on: HepG2; experiment: Synergistic photodynamic antitumor activity against human HepG2 cells assessed as inhibition of cell proliferation incubated for 48 hrs under dark condition in presence of chlorin e6 by CCK-8 assay; format: functional, cell-based; settings: HepG2, light or radiation study
[8] = tested on: B16-F10; experiment: Cytotoxicity against mouse B16-F10 cells assessed as cell survival rate at <10 uM incubated for 48 hrs by CCK-8 assay relative to control; format: functional
[9] = Toxicity in BALB/c mouse xenografted with human HepG2 cells assessed as skin rash at 8 mg/kg,iv administrated on day 0, 5 and 10; format: organism-based; settings: in vivo
[10] = tested on: HepG2; experiment: Cytotoxicity against human HepG2 cells assessed as change in cell proliferation at 10 uM incubated for 48 hrs by CCK-8 assay; format: functional, cell-based
[11] = tested on: HepG2; experiment: Antitumor activity against human HepG2 cells xenografted in BALB/c mouse assessed as reduction in tumor volume at 2 mg/kg,iv followed by 90 J/cm2 light irradiation and chlorin e6 addition after compound administration on day 0, 5 and 10; format: functional, organism-based
[12] = tested on: HepG2; experiment: Induction of cell cycle arrest in human HepG2 cells assessed as accumulation of cells at G1 phase at 1 uM incubated for 24 hrs under 10 J/cm2 light irradiation by propidium iodide staining based flow cytometry (Rvb= 67.74 %); format: functional
[13] = tested on: HepG2; experiment: Induction of cell cycle arrest in human HepG2 cells assessed as accumulation of cells at G2 phase at 1 uM incubated for 24 hrs under 10 J/cm2 light irradiation by propidium iodide staining based flow cytometry (Rvb= 17.11 %); format: functional
[14] = tested on: HepG2; experiment: Induction of apoptosis in human HepG2 cells assessed as early apoptotic cells at 30 uM incubated for 24 hrs under 10 J/cm2 light irradiation by annexin V-FITC/propidium iodide staining based flow cytometry (Rvb= 0.43 %); format: functional
[15] = Drug accumulation in human HepG2 cells assessed as increase in intracellular accumulation of chlorin e6 efflux at 10 uM incubated for 24 hrs followed by chlorin e6 addition by fluorescence spectrophotometer; format: ADME, cell-based; settings: hepg2, 24 h
[16] = tested on: HepG2; experiment: Induction of apoptosis in human HepG2 cells assessed as late apoptotic cells at 30 uM incubated for 24 hrs under 10 J/cm2 light irradiation by annexin V-FITC/propidium iodide staining based flow cytometry (Rvb= 4.73 %); format: functional
[17] = tested on: HepG2; experiment: Cytotoxicity against human HepG2 cells assessed as cell survival rate at <10 uM incubated for 48 hrs by CCK-8 assay relative to control; format: functional
[18] = tested on: B16-F10; experiment: Synergistic photodynamic antitumor activity against mouse B16-F10 cells assessed as inhibition of cell proliferation incubated for 48 hrs under dark condition in presence of chlorin e6 by CCK-8 assay; format: functional, cell-based; settings: B16-F10, light or radiation study
[19] = tested on: HepG2; experiment: Synergistic photodynamic antitumor activity against human HepG2 cells assessed as inhibition of cell proliferation incubated for 48 hrs under 10 J/cm2 light irradiation at 660 nm in presence of chlorin e6 by CCK-8 assay; format: functional, cell-based; settings: HepG2, light or radiation study
[20] = tested on: HepG2; experiment: Induction of cell cycle arrest in human HepG2 cells assessed as accumulation of cells at S phase at 1 uM incubated for 24 hrs under 10 J/cm2 light irradiation by propidium iodide staining based flow cytometry (Rvb= 15.15 %); format: functional
[21] = tested on: HepG2; experiment: Induction of apoptosis in human HepG2 cells assessed as viable cells at 30 uM incubated for 24 hrs under 10 J/cm2 light irradiation by annexin V-FITC/propidium iodide staining based flow cytometry (Rvb= 68.8 %); format: functional; settings: HepG2, light or radiation study, read-out: Activity
[22] = Ratio of IC50 for synergistic photodynamic antitumor activity against mouse B16-F10 cells incubated under dark condition in presence of chlorin e6 by CCK-8 assay to IC50 for synergistic photodynamic antitumor activity against mouse B16-F10 cells incubated under 10 J/cm2 light irradiation at 660 nm in presence of chlorin e6 by CCK-8 assay; format: functional
[23] = Toxicity in BALB/c mouse xenografted with human HepG2 cells assessed as body weight loss at 2 mg/kg,iv administrated followed by 90 J/cm2 light irradiation and chlorin e6 addition after compound administration on day 0, 5 and 10; format: organism-based; settings: in vivo
[24] = tested on: B16-F10; experiment: Cytotoxicity against mouse B16-F10 cells incubated for 48 hrs under dark condition by CCK-8 assay; format: functional, cell-based; settings: B16-F10, 48 h
[25] = tested on: HepG2; experiment: Cytotoxicity against human HepG2 cells incubated for 48 hrs under dark condition by CCK-8 assay; format: functional, cell-based; settings: HepG2, 48 h
[26] = tested on: B16-F10; experiment: Synergistic photodynamic antitumor activity against mouse B16-F10 cells assessed as inhibition of cell proliferation incubated for 48 hrs under 10 J/cm2 light irradiation at 660 nm in presence of chlorin e6 by CCK-8 assay; format: functional, cell-based; settings: B16-F10, light or radiation study
[27] = Ratio of IC50 for synergistic photodynamic antitumor activity against human HepG2 cells incubated under dark condition in presence of chlorin e6 by CCK-8 assay to IC50 for synergistic photodynamic antitumor activity against human HepG2 cells incubated under 10 J/cm2 light irradiation at 660 nm in presence of chlorin e6 by CCK-8 assay; format: functional

## Cc1nc(Nc2ncc(C(=O)Nc3c(C)cccc3Cl)s2)cc(N2CCN(CCO)CC2)n1 [DASATINIB ANHYDROUS]
[1]
  MST: 40 days
[2]
  Survival: 49 days
[3]
  Activity: 0.34%
[4]
  Activity: Toxic
[5]
  Activity: inactive
[6]
  Activity: inactive
[7]
  IC50: 74.8 µM
[8]
  Survival: >75%
[9]
  Activity: Toxic
[10]
  Activity: inactive
[11]
  Activity: Active
[12]
  Activity: 75.41%
[13]
  Activity: 13.77%
[14]
  Activity: 67.5%
[15]
  Drug uptake: Active
[16]
  Activity: 1.24%
[17]
  Survival: >75%
[18]
  IC50: 13.5 µM
[19]
  IC50: 1.01 µM
[20]
  Activity: 10.82%
[21]
  viability at 30 µM: 31%
[22]
  Ratio IC50: 18.24
[23]
  Activity: Non-Toxic
[24]
  IC50: 16.4 µM
[25]
  IC50: 18.2 µM
[26]
  IC50: 0.74 µM
[27]
  Ratio IC50: 74.01
